Tests used:
[1] = in vivo; cited from earlier work
[2] = test system: central muscarinic agonist site; assay: Receptor [^3 H]Cis-methyldioxalane Assay (RCMD), rat cerebral cortex; assay type: binding
[3] = test system: central muscarinic antagonist site; assay type: binding; conditions: rat cerebral cortex, [3H]quinuclidinyl benzilate
[4] = aged humans and nonhuman primates with decreased cognition; cited from earlier work

Row | Compound | age-related cognitive deficits [1] | RCMD (% Inhibition at 0.1 μM) [2] [%] | RQNB (% Inhibition at 1 μM) [3] [%] | memory [4]
1 | Nc1ccncc1N [3,4-diaminopyridine] | ameliorate age-related cognitive deficits | – | – | –
2 | c1nnnn1C1CN2CCC1CC2 (centres unmarked) [Example 1, 3-(1H-Tetrazol-1-yl)-1-azabicyclo[2.2.2]octane] | – | 0 | 7 | –
3 | Cc1nnnn1C1CN2CCC1CC2 (centres unmarked) [Example 1a, 3-(5-Methyl-1H-tetrazol-1-yl)-1-azabicyclo[2.2.2]octane] | – | 8 | 19 | –
4 | CCc1nnnn1C1CN2CCC1CC2 (centres unmarked) [Example 1b, 3-(5-Ethyl-1H-tetrazol-1-yl)-1-azabicyclo[2.2.2]-octane] | – | 15 | 11 | –
5 | CNC(=O)Oc1ccc2c(c1)[C@]1(C)CCN(C)[C@@H]1N2C [physostigmine] | – | – | – | improved memory
